We go through 23 compounds from patent US11958831B2, “Pyrazole compounds, pharmaceutical compositions thereof and use thereof” (ARTIVILA (SHENZHEN) INNOVATION CENTER, LTD., priority 2018, dated 2024).

Sequence of IRAK4 kinase (Q9NWZ3 whole entry): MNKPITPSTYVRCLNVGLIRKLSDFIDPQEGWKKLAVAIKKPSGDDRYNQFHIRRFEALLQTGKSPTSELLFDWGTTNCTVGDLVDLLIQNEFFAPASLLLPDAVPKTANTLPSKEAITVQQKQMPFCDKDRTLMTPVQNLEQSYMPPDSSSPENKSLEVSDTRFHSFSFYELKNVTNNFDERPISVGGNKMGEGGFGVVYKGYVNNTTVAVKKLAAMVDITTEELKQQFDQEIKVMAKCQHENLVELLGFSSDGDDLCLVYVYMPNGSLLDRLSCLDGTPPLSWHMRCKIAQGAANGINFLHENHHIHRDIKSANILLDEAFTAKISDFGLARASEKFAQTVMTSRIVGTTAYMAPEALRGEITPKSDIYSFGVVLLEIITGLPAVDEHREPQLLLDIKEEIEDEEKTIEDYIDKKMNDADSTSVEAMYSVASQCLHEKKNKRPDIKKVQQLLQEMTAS

The assay addresses IRAK4 kinase (Homo sapiens (Human), UniProt Q9NWZ3). Briefly: IRAK4 kinase activity assay (mobility shift, Km ATP). The class given is biochemical. Particulars: Km ATP (15.6 μM ATP), 1 nM IRAK4, 60 min room temperature. The method, then:
Inhibitory activity (IC50) of the compounds against IRAK4 kinase under Km ATP was detected through mobility spectrum analysis (MSA). IRAK4 kinase was purchased from Carna (Cat. No.: 09-145, batch No.: 14CBS-0020H), and Kinase Substrate 8 was purchased from GL Biochem (Cat. No.: 112396, batch No.: P171207-MJI112396).
The compounds were prepared with DMSO to 100 times the final reaction concentration and diluted to 10 concentrations in sequence at a 3-fold dilution ratio starting from 1 μM. Then 0.25 μL was transferred to a 384-well plate using Echo550. A 1× kinase buffer (50 mM HEPES, pH=7.5, 0.0015% Brij-35, 10 mM MgCl2, 2 mM DTT) was used to prepare a kinase solution of 2.5 times the final concentration. Then 10 μL of the kinase solution of 2.5 times the final concentration was added to each compound well, shaken and mixed uniformly, and incubated at room temperature for 10 min. A 1× kinase buffer was used to prepare a mixed solution of ATP and substrate Kinase Substrate 8 with a concentration of 25/15 times the final concentration. 15 μL of the mixed solution of ATP and the substrate with a concentration of 25/15 times the final concentration were added to each well (the final concentration of IRAK4 kinase was 1 nM, the final concentration of the substrate was 3 μM, and the final concentration of ATP was 15.6 μM), shaken and mixed uniformly, and reacted at room temperature for 60 min. Finally, 30 μL of stopping solution (100 mM HEPES, pH=7.5, 0.0015% Brij-35, 0.2% Coating Reagent #3, 50 mM EDTA) was added to terminate the reaction. CaliperEZ Reader II was used to read data about conversion rates that was then converted into data about inhibition rates. According to the data about the inhibition rate at each concentration, the half maximal inhibitory concentration (IC50) (Table 1) was calculated by a Logit method.
As a reminder, the IC50 is the concentration that gives 50% inhibition. As for `CC(=O)N1CCC(N2CC(n3cc(NC(=O)c4cccc(-c5cnn(C(F)F)c5)n4)c(C(F)F)n3)C2)CC1` [Example 5, N-(1-(1-(1-acetylpiperidin-4-yl)azetidin-3-yl)-3-(difluoromethyl)-1H-pyrazol-4-yl)-6-(1-(difluoromethyl)-1H-pyrazol-4-yl)-2-picolinamide], the IC50 was 4.3 nM.
As to `CC(=O)N1CCC(N2CC(n3cc(NC(=O)c4cccc(-c5cnn(C)c5)n4)c(C(F)F)n3)C2)CC1` [Example 6, N-(1-(1-(1-acetylpiperidin-4-yl)azetidin-3-yl)-3-(difluoromethyl)-1H-pyrazol-4-yl)-6-(1-methyl-1H-pyrazol-4-yl)-2-picolinamide], the IC50 came to 4.2 nM.
Next, `CCn1cc(-c2cccc(C(=O)Nc3cn(C4CN(C5CCN(C(C)=O)CC5)C4)nc3C(F)F)n2)cn1` [Example 7, N-(1-(1-(1-acetylpiperidin-4-yl)azetidin-3-yl)-3-(difluoromethyl)-1H-pyrazol-4-yl)-6-(1-ethyl-1H-pyrazol-4-yl)-2-picolinamide]: 3.3 nM.
Next, `CC(=O)N1CCC(N2CC(n3cc(NC(=O)c4cccc(-c5cnn(C(C)C)c5)n4)c(C(F)F)n3)C2)CC1` [Example 8, N-(1-(1-(1-acetylpiperidin-4-yl)azetidin-3-yl)-3-(difluoromethyl)-1H-pyrazol-4-yl)-6-(1-isopropyl-1H-pyrazol-4-yl)-2-picolinamide]: 1.9 nM.
As for `CC(=O)N1CCC(N2CC(n3cc(NC(=O)c4cccc(-c5cnn(C6(C#N)CC6)c5)n4)c(C(F)F)n3)C2)CC1` [Example 9, N-(1-(1-(1-acetylpiperidin-4-yl)azetidin-3-yl)-3-(difluoromethyl)-1H-pyrazol-4-yl)-6-(1-(1-cyanocyclopropyl)-1H-pyrazol-4-yl)-2-picolinamide], the figure is 2.5 nM.
With `CC(=O)N1CCC(N2CC(n3cc(NC(=O)c4cccc(-c5cnn(C6(C#N)CCC6)c5)n4)c(C(F)F)n3)C2)CC1` [Example 10, N-(1-(1-(1-acetylpiperidin-4-yl)azetidin-3-yl)-3-(difluoromethyl)-1H-pyrazol-4-yl)-6-(1-(1-cyanocyclobutyl)-1H-pyrazol-4-yl)-2-picolinamide], the half-inhibitory concentration (IC50) was found to be 2 nM.
Consider `CC(=O)N1CCC(N2CC(n3cc(NC(=O)c4cccc(-c5cnn(C6(CN)CCC6)c5)n4)c(C(F)F)n3)C2)CC1` [Example 11, N-(1-(1-(1-acetylpiperidin-4-yl)azetidin-3-yl)-3-(difluoromethyl)-1H-pyrazol-4-yl)-6-(1-(1-(aminomethyl)cyclobutyl)-1H-pyrazol-4-yl)-2-picolinamide], for which the IC50 worked out at 1.6 nM.
Turning to `CC(=O)N1CCC(N2CC(n3cc(NC(=O)c4cccc(-c5cnn(C6(CO)CCC6)c5)n4)c(C(F)F)n3)C2)CC1` [Example 14, N-(1-(1-(1-acetylpiperidin-4-yl)azetidin-3-yl)-3-(difluoromethyl)-1H-pyrazol-4-yl)-6-(1-(1-(hydroxymethyl)cyclobutyl)-1H-pyrazol-4-yl)-2-picolinamide], the IC50 was determined as 3.2 nM.
On to `CC(=O)N1CCC(N2CC(n3cc(NC(=O)c4cccc(-c5cnn(CC(C)(C)O)c5)n4)c(C(F)F)n3)C2)CC1` [Example 15, N-(1-(1-(1-acetylpiperidin-4-yl)azetidin-3-yl)-3-(difluoromethyl)-1H-pyrazol-4-yl)-6-(1-(2-hydroxy-2-methylpropyl)-1H-pyrazol-4-yl)-2-picolinamide], for which the IC50 came to 3.9 nM.
As for `CC(=O)N1CCC(N2CC(n3cc(NC(=O)c4cccc(-c5cnn(C(C)(C)CO)c5)n4)c(C(F)F)n3)C2)CC1` [Example 16, N-(1-(1-(1-acetylpiperidin-4-yl)azetidin-3-yl)-3-(difluoromethyl)-1H-pyrazol-4-yl)-6-(1-(1-hydroxy-2-methylpropyl-2-yl)-1H-pyrazol-4-yl)-2-picolinamide], the figure is 1.8 nM.
As for `CN(C)C(=O)N1CCC(N2CC(n3cc(NC(=O)c4cccc(-c5cnn(C(C)(C)CN)c5)n4)c(C(F)F)n3)C2)CC1` [Example 17, 6-(1-(1-Amino-2-methylpropan-2-yl)-1H-pyrazol-4-yl)-N-(3-(difluoromethyl)-1-(1-(1-(dimethylcarbamoyl)piperidin-4-yl)azetidin-3-yl)-1H-pyrazol-4-yl)-2-picolinamide], the figure is 0.57 nM; as for `COC(=O)N1CCC(N2CC(n3cc(NC(=O)c4cccc(-c5cnn(C(C)(C)CN)c5)n4)c(C(F)F)n3)C2)CC1` [Example 18, Methyl 4-(3-(4-(6-(1-(1-amino-2-methylpropan-2-yl)-1H-pyrazol-4-yl)-2-picolinamide)-3-(difluoromethyl)-1H-pyrazol-1-yl)azetidin-1-yl)piperidine-1-carboxylate], 0.67 nM; as for `CC(=O)N1CCC(N2CC(n3cc(NC(=O)c4cccc(-c5cn[nH]c5)n4)c(C(F)F)n3)C2)CC1` [Example 19, N-(1-(1-(1-acetylpiperidin-4-yl)azetidin-3-yl)-3-(difluoromethyl)-1H-pyrazol-4-yl)-6-(1H-pyrazol-4-yl)-2-picolinamide], 1.9 nM.
With `CN(C)C(=O)N1CCC(N2CC(n3cc(NC(=O)c4cccc(-c5cn[nH]c5)n4)c(C(F)F)n3)C2)CC1` [Example 20, N-(3-(difluoromethyl)-1-(1-(1-(dimethylcarbamoyl)piperidin-4-yl)azetidin-3-yl)-1H-pyrazol-4-yl)-6-(1H-pyrazol-4-yl)-2-picolinamide], the IC50 worked out at 3.2 nM.
As for `COC(=O)N1CCC(N2CC(n3cc(NC(=O)c4cccc(-c5cn[nH]c5)n4)c(C(F)F)n3)C2)CC1` [Example 21, Methyl 4-(3-(4-(6-(1H-pyrazol-4-yl)-2-picolinamide)-3-(difluoromethyl)-1H-pyrazol-1-yl)azetidin-1-yl)piperidine-1-carboxylate], the figure is 1.7 nM; as for `C=CC(=O)N1CCC(N2CC(n3cc(NC(=O)c4cccc(-c5cn[nH]c5)n4)c(C(F)F)n3)C2)CC1` [Example 22, N-(1-(1-(1-acryloylpiperidin-4-yl)azetidin-3-yl)-3-(difluoromethyl)-1H-pyrazol-4-yl)-6-(1H-pyrazol-4-yl)-2-picolinamide], 2.5 nM; as for `C=CC(=O)N1CCC(N2CC(n3cc(NC(=O)c4cccc(-c5cc[nH]n5)n4)c(C(F)F)n3)C2)CC1` [Example 23, N-(1-(1-(1-acryloylpiperidin-4-yl)azetidin-3-yl)-3-(difluoromethyl)-1H-pyrazol-4-yl)-6-(1H-pyrazol-3-yl)-2-picolinamide], 0.63 nM.
Next, `COC(=O)N1CCC(N2CC(n3cc(NC(=O)c4cccc(-c5cc[nH]n5)n4)c(C(F)F)n3)C2)CC1` [Example 25, Methyl 4-(3-(4-(6-(1H-pyrazol-3-yl)-2-picolinamide)-3-(difluoromethyl)-1H-pyrazol-1-yl)azetidin-1-yl)piperidine-1-carboxylate]: 0.65 nM; `CCC(=O)N1CCC(N2CC(n3cc(NC(=O)c4cccc(-c5cc[nH]n5)n4)c(C(F)F)n3)C2)CC1` [Example 26, N-(3-(difluoromethyl)-1-(1-(1-propionylpiperidin-4-yl)azetidin-3-yl)-1H-pyrazol-4-yl)-6-(1H-pyrazol-3-yl)-2-picolinamide]: 0.54 nM.
Next, `CN(C)C(=O)N1CCC(N2CC(n3cc(NC(=O)c4cccc(-c5cc[nH]n5)n4)c(C(F)F)n3)C2)CC1` [Example 28, N-(3-(difluoromethyl)-1-(1-(1-(dimethylcarbamoyl)piperidin-4-yl)azetidin-3-yl)-1H-pyrazol-4-yl)-6-(1H-pyrazol-3-yl)-2-picolinamide]: 0.68 nM.
For `CC(C)C(=O)N1CCC(N2CC(n3cc(NC(=O)c4cccc(-c5cc[nH]n5)n4)c(C(F)F)n3)C2)CC1` [Example 29, N-(3-(difluoromethyl)-1-(1-(1-isobutyrylpiperidin-4-yl)azetidin-3-yl)-1H-pyrazol-4-yl)-6-(1H-pyrazol-3-yl)-2-picolinamide], the IC50 turned out to be 0.81 nM.
Next, `C[C@H](O)C(=O)N1CCC(N2CC(n3cc(NC(=O)c4cccc(-c5cnn(CC(F)(F)F)c5)n4)c(C(F)F)n3)C2)CC1` [Example 30, (S)—N-(3-(difluoromethyl)-1-(1-(1-(2-hydroxypropionyl)piperidin-4-yl)azetidin-3-yl)-1H-pyrazol-4-yl)-6-(1-(2,2,2-trifluoroethyl)-1H-pyrazol-4-yl)-2-picolinamide]: 3.3 nM; `CS(=O)(=O)N1CCC(N2CC(n3cc(NC(=O)c4cccc(-c5cnn(CC(F)(F)F)c5)n4)c(C(F)F)n3)C2)CC1` [Example 33, N-(3-(difluoromethyl)-1-(1-(1-(methylsulfonyl)piperidin-4-yl)azetidin-3-yl)-1H-pyrazol-4-yl)-6-(1-(2,2,2-trifluoroethyl)-1H-pyrazol-4-yl)-2-picolinamide]: 4.9 nM.
